Patent US4103008A, “7[2(2,3 Dioxopiperazin-1-yl-carbonylamino)substituted 2 phenylacetamido]-3-2'-thiadiazolyl cephalosporanic acid derivatives” (priority 1976, dated 1978)
Values after ≈ are worked out from the molar mass of the structure shown. Where two headings read alike, the source gives them in different places.

Key:
[1] = test system: Pseudomonas strain C73-63; assay: In vitro antibacterial activity (MIC); format: cell-based; details: C7363
[2] = test system: Salmonella enteritidis No. 11; assay: In vitro antibacterial activity (MIC); format: cell-based; details: Salmonella enterica
[3] = test system: Enterobacter strain C73-17; assay: In vitro antibacterial activity (MIC); format: cell-based; details: C7317
[4] = test system: Bacillus substilis ATCC 6633; assay: In vitro antibacterial activity (MIC); format: cell-based; details: ATCC6633
[5] = test system: Staphylococcus aureus FDA 209NIH, P-J C-1; assay: In vitro antibacterial activity (MIC); format: cell-based
[6] = test system: Vibrio parahaemolyticus K - 5; assay: In vitro antibacterial activity (MIC); format: cell-based; details: K5
[7] = test system: Streptococcus faecalis ATCC 8043; assay: In vitro antibacterial activity (MIC); format: cell-based; details: Enterococcus faecalis, ATCC8043
Klebsilla pneumoniae = assay: In vitro antibacterial activity (MIC); format: cell-based
[8] = test system: Shigella dysenteriae shigae; assay: microbe, parasite or virus in culture; format: cell-based
[9] = test system: Vibrio parahaemolyticus K - 3; assay: In vitro antibacterial activity (MIC); format: cell-based; details: K3
[10] = Serum concentration and accumulative urinary excretion in rabbit; details: in vivo, im
Description: (§1) Given below are the test results of in vitro antibacterial activity studies, serum concentrations and accumulative urinary excretions in rabbits and the protecting effects in mice, of some representative compounds of the invention.
(§2) The compounds used in the tests are shown in the following Table 1, but all of these compounds are in the form of the sodium salt.
Each of the test compounds (20 mg/kg) was intramuscularly administered to one group of 3 rabbits, and the amounts of antibiotics were measured by a conventional method, using Sarcina lutea.

Salmonella strain C73-1 = assay: In vitro antibacterial activity (MIC); format: cell-based; details: C731; Salmonella strain C73-1; in vitro; sodium salts; read-out: MIC
From the text: as §1, §2

[11] = test system: Pseudomonas strain C73-83; assay: In vitro antibacterial activity (MIC); format: cell-based; details: C7383; Pseudomonas strain C73-83; in vitro; sodium salts; read-out: MIC
From the text: as §1, §2

[12] = test system: Salmonella strain C 73-30; assay: In vitro antibacterial activity (MIC); format: cell-based; details: C7330; Salmonella strain C 73-30; in vitro; sodium salts; read-out: MIC
From the text: as §1, §2

Proteus morganii kono = assay: In vitro antibacterial activity (MIC); format: cell-based; details: Morganella morganii
Serratia strain No. 2 = assay: In vitro antibacterial activity (MIC); format: cell-based
Serratia strain No. 1 = assay: In vitro antibacterial activity (MIC); format: cell-based
[13] = test system: Pseudomonas aeruginosa C73-2; assay: In vitro antibacterial activity (MIC); format: cell-based; details: C732
Escherichia coli C 73-1 = assay: In vitro antibacterial activity (MIC); format: cell-based; details: C731
[14] = test system: Pseudomonas aerugenosa E 2 strain; assay: ED50 in Pseudomonas infection in mice; format: in vivo; details: ICR-JCL mouse, male, 20g; P. aerugenosa E 2 3.6 × 10^4 intraperitoneal; compound intramuscular after 2 hrs.; ED50 after 7 days; sodium salts
From the text: as §1, §2
Pseudomonas aerugenosa E 2 strain (3.6 × 10^4) was intraperitonealy injected to each group of 10 of ICR-JCL mouse (male, 20g). After 2 hrs., each of the test compounds was intramuscularly administered to the infected mice and the ED50 values were measured after 7 days.

Proteus morganii C73-23 = assay: In vitro antibacterial activity (MIC); format: cell-based; details: Morganella morganii, C7323
Escherichia coli C 73-4 = assay: In vitro antibacterial activity (MIC); format: cell-based; details: C734
[15] = Pseudomonas strain C73-63, in vitro, sodium salts, read-out: MIC
[16] = Salmonella enteritidis No. 11, in vitro, sodium salts, read-out: MIC
[17] = Enterobacter strain C73-17, in vitro, sodium salts, read-out: MIC
[18] = Bacillus substilis ATCC 6633, in vitro, sodium salts, read-out: MIC
[19] = Staphylococcus aureus FDA 209NIH, P-J C-1, in vitro, sodium salts, read-out: MIC
[20] = Vibrio parahaemolyticus K - 5, in vitro, sodium salts, read-out: MIC
[21] = Streptococcus faecalis ATCC 8043, in vitro, sodium salts, read-out: MIC
[22] = Klebsilla pneumoniae, in vitro, sodium salts, read-out: MIC
[23] = Vibrio parahaemolyticus K - 3, in vitro, sodium salts, read-out: MIC
[24] = Proteus morganii kono, in vitro, sodium salts, read-out: MIC
[25] = Serratia strain No. 2, in vitro, sodium salts, read-out: MIC
[26] = Serratia strain No. 1, in vitro, sodium salts, read-out: MIC
[27] = Pseudomonas aeruginosa C73-2, in vitro, sodium salts, read-out: MIC
[28] = Escherichia coli C 73-1, in vitro, sodium salts, read-out: MIC
[29] = Proteus morganii C73-23, in vitro, sodium salts, read-out: MIC
[30] = Escherichia coli C 73-4, in vitro, sodium salts, read-out: MIC

| SMILES | MIC [1, 15] [µg/mL] | MIC [2, 16] [µg/mL] | MIC [3, 17] [µg/mL] | MIC [4, 18] [µg/mL] | MIC [5, 19] [µg/mL] | MIC [6, 20] [µg/mL] | MIC [7, 21] [µg/mL] | MIC [8] [µg/mL] | MIC [9, 23] [µg/mL] | MIC (Salmonella strain C73-1) [µg/mL] | MIC [11] [µg/mL] | MIC [12] [µg/mL] | MIC (Proteus morganii kono; [24]) [µg/mL] | MIC [13, 27] [µg/mL] | MIC (Proteus morganii C73-23; [29]) [µg/mL] | MIC (Klebsilla pneumoniae) [µg/mL] | MIC (Serratia strain No. 2; Serratia, NO.2) [µg/mL] | MIC (Serratia strain No. 1; Serratia, NO.1) [µg/mL] | MIC (Escherichia coli C 73-1; Escherichia coli) [µg/mL] | MIC (Escherichia coli C 73-4; Escherichia coli) [µg/mL] | also measured |
| --- | --- | --- | --- | --- | --- | --- | --- | --- | --- | --- | --- | --- | --- | --- | --- | --- | --- | --- | --- | --- | --- |
| CCN1CCN(C(=O)N[C@@H](C(=O)NC2C(=O)N3C(C(=O)O)=C(CSc4nncs4)CS[C@H]23)c2ccc(OC(C)=O)cc2)C(=O)C1=O (single isomer, unassigned) [III, 7-[D(-)-α-(4-ethyl-2,3-dioxopiperazin-1-yl-carbonylamino)-p-acetoxyphenylacetamido]-3-(1,3,4-thiadiazol-2-yl-thiomethyl)-3-cephem-4-carboxylic acid] | 6.25 | 1.56 | 25 | 12.5 | 12.5 | 6.25 | 1.56 | 0.78 (≈ 1.13 µM) | 6.25 | 0.78 | 25 | 0.78 | 6.25 | 1.56 | 12.5 |  |  |  |  |  | MIC (Klebsilla pneumoniae; [22]): 0.78 µg/mL; dose excreted at 6 h ([10]; 20 mg/kg): 48%; concentration at 0.5 h ([10]; 20 mg/kg intramuscular, after 30 mins., sodium salts, Sarcina lutea assay): 62 µg/mL; MIC (Serratia strain No. 2; [25]): 1.56 µg/mL; MIC (Serratia strain No. 1; [26]): 6.25 µg/mL; MIC (Escherichia coli C 73-1; [28]): 3.13 µg/mL; ED50 in Pseudomonas infection in mice [14]: 2.6 mg/mouse; MIC (Escherichia coli C 73-4; [30]): 3.13 µg/mL |
| CCN1CCN(C(=O)N[C@@H](C(=O)N[C@@H]2C(=O)N3[C@@H]2SC(C)(C)[C@@H]3C(=O)O)c2ccccc2)C(=O)C1=O [C, sodium 6-[D(-)-α-(4-ethyl-2,3-dioxopiperazin-1-yl-carbonylamino)phenylacetamido]penicillanate, reference compound] |  | < 0.05 |  | 0.39 | 0.78 | 12.5 | 12.5 | 0.2 | 25 | 6.25 | 50 | 6.25 | 0.78 |  |  | 3.13 | 3.13 | 3.13 | 3.13 | 6.25 | MIC ([1]; Pseudomonas): 3.13 µg/mL; MIC ([3]; Enterobacter): 6.25 µg/mL; MIC ([13]; Pseudomonas aeruginosa): 6.25 µg/mL; MIC (Proteus morganii C73-23): 3.13 µg/mL |
| CC1(C)S[C@@H]2[C@H](NC(=O)C(C(=O)O)c3ccccc3)C(=O)N2[C@H]1C(=O)O (some centres unmarked) [CB-PC, sodium carbenicillin, reference compound] |  | 0.39 | 25 | < 0.05 | 0.2 | > 100 |  | 0.78 | > 100 | 6.25 | > 100 | 6.25 | 0.39 | 25 | 1.56 | 6.25 | 3.13 | 3.13 |  | 6.25 | MIC ([1]; Pseudomonas): 12.5 µg/mL; MIC [7]: 6.25 µg/mL; MIC (Escherichia coli C 73-1; [28]): > 100 µg/mL; ED50 in Pseudomonas infection in mice [14]: 8.1 mg/mouse |
| CC1=C(C(=O)O)N2C(=O)[C@@H](NC(=O)[C@H](N)c3ccccc3)[C@H]2SC1 [CEX, sodium cephalexin, reference compound] | > 100 |  |  |  |  |  |  | 1.56 |  | 3.13 | > 100 | 3.13 |  |  |  | 3.13 | > 100 | > 100 | 25 | 6.25 | MIC ([2]; ENTERITIDIS): 3.13 µg/mL; MIC ([3]; Enterobacter): 100 µg/mL; MIC ([4]; Bacillus): 0.39 µg/mL; MIC ([5]; Staphylococcus aureus): 0.78 µg/mL; MIC ([6]; Vibrio parahaemolyticus): 50 µg/mL; MIC [7]: 50 µg/mL; MIC ([9]; Vibrio parahaemolyticus): 6.25 µg/mL; MIC (Proteus morganii kono): > 100 µg/mL; MIC ([13]; Pseudomonas aeruginosa): > 100 µg/mL; MIC (Proteus morganii C73-23): > 100 µg/mL |
| Cc1nnc(SCC2=C(C(=O)O)N3C(=O)[C@@H](NC(=O)Cn4cnnn4)[C@H]3SC2)s1 [CEZ, sodium cefazolin, reference compound] | > 100 | 0.78 | 25 | < 0.05 | < 0.05 | 12.5 | 2.5 | 0.78 |  | 0.78 | > 100 | 0.78 | > 100 | > 100 | > 100 |  |  |  | 3.13 |  | MIC (Klebsilla pneumoniae; [22]): 0.78 µg/mL; MIC ([9]; Vibrio parahaemolyticus): 1.56 µg/mL; MIC (Serratia strain No. 2; [25]): > 100 µg/mL; MIC (Serratia strain No. 1; [26]): > 100 µg/mL; MIC (Escherichia coli C 73-4; [30]): 0.78 µg/mL |
